Laboratory results from article PMC4666356 (2015).

How the values were obtained:
[1] = system: mt1015 (DNA, G4) GGGCTTGATGTGGGGAGGGGTGTTTAAGGG; assay: fluorescence lifetime; details: qualitative; decay time ~3.3 ns
[2] = system: mt6363 (DNA, G4) AGGGACGCGGGCGGGGGATATAGGGT; assay: CD melting at 265 nm; details: 20 mM K+; 4 uM DNA, 8 uM compound

| binding [1] | dTm [2] | SMILES |
| --- | --- | --- |
| yes | ~ 30 °C | C[n+]1ccccc1/C=C/c1ccc2c(c1)c1cc(/C=C/c3cccc[n+]3C)ccc1n2CCCCCCCCCCCC[N+]1(C)CCCCC1 |
| – | ~ 30 °C | C[n+]1ccccc1/C=C/c1ccc2c(c1)c1cc(/C=C/c3cccc[n+]3C)ccc1n2CCCCCC[N+]1(C)CCCCC1 |
